The record followed here is ChEMBL document CHEMBL3046491, “cis-Configuration: a new tactic/rationale for neonicotinoid molecular design” (2011).

Common to all, as to format: functional
For test [1], the system named is Aphis craccivora. Nature of the test: Insecticidal activity against Aphis craccivora (cowpea aphid) assessed as mortality at 500 mg/L.
Test [2] concerns Aphis craccivora. Nature of the test: Insecticidal activity against Aphis craccivora (cowpea aphid) assessed as mortality.
Test [3] relates to Nilaparvata lugens. Description: Insecticidal activity against imidacloprid-resistant Nilaparvata lugens (brown planthopper) assessed as drug concentration required to induce mortality per pest.
Test [4] has as its system Nilaparvata lugens. Nature of the test: Ratio of imidacloprid LC50 to compound LC50 for imidacloprid-resistant Nilaparvata lugens (brown planthopper).
Test [5] has as its system Nilaparvata lugens. Description: Insecticidal activity against imidacloprid-sensitive Nilaparvata lugens (brown planthopper) assessed as drug concentration required to induce mortality per pest.

In the case of `O=[N+]([O-])C1=C2N(Cc3ccc(Cl)nc3)C[C@H]3CCC[C@H]3N2CN(CCO)C1` (relative stereo), the mortality at 500 µg/mL in the test with Aphis craccivora [1] came to 30%.

As for `O=[N+]([O-])C1=C2N(Cc3ccc(Cl)nc3)CCN2[C@H](c2ccco2)[C@@](C2=NCCN2Cc2ccc(Cl)nc2)([N+](=O)[O-])[C@H]1c1ccco1`, in the test with Aphis craccivora [1], the mortality at 500 µg/mL was determined as 87%.

For `CCCN1CC([N+](=O)[O-])=C2N(CC3COCO3)CCN2C1` (centres undefined), the mortality at 500 µg/mL with Aphis craccivora [1] was 0%.

Consider `O=[N+]([O-])/N=C1\NCCN1Cc1ccc(Cl)nc1` [IMIDACLOPRID], for which the values for the LC50 with Aphis craccivora [2] and in the test with Nilaparvata lugens [3] were 31 µM and 22.1614 ng, respectively.

In the case of `CN1CC([N+](=O)[O-])=C2N(Cc3ccc(Cl)nc3)C[C@H]3CCC[C@H]3N2C1`, the mortality at 500 µg/mL in the test with Aphis craccivora [1] is 30%.

Take `CC(C)N1CC([N+](=O)[O-])=C2N(CC3COCO3)CCN2C1` (centres undefined): the mortality at 500 µg/mL in the test with Aphis craccivora [1] amounted to 0%.

On to `CCN1CC([N+](=O)[O-])=C2N(CC3COCO3)CCN2C1` (centres undefined), for which the mortality at 500 µg/mL in the test on Aphis craccivora [1] is 0%.

For `CCCCN1CC([N+](=O)[O-])=C2N(Cc3ccc(Cl)nc3)C[C@H]3CCC[C@H]3N2C1` (relative stereo), the mortality at 500 µg/mL in the test on Aphis craccivora [1] was 30%.

Regarding `CN1CC([N+](=O)[O-])=C2N(CC3COCO3)CCN2C1` (centres undefined), the mortality at 500 µg/mL in the test with Aphis craccivora [1] stood at 0%.

As for `O=[N+]([O-])C1=C2N(CC3COCO3)CCN2CN(CCO)C1` (centres undefined), in the test on Aphis craccivora [1], the mortality at 500 µg/mL came out at 0%.

On to `CCCN1CC([N+](=O)[O-])=C2N(Cc3ccc(Cl)nc3)C[C@H]3CCC[C@H]3N2C1` (relative stereo), for which the mortality at 500 µg/mL in the test with Aphis craccivora [1] was 30%.

Turning to `O=[N+]([O-])C1=C2N(Cc3ccc(Cl)nc3)CCN2[C@@H]2CC[C@H]1O2`, in the test with Nilaparvata lugens [4], the RatioLC50 amounted to 50. The figures for the LC50 in the test on Nilaparvata lugens [5] and with Nilaparvata lugens [3] were 0.0742 ng and 0.4925 ng, respectively.

For `CC(C)N1CC([N+](=O)[O-])=C2N(Cc3ccc(Cl)nc3)C[C@H]3CCC[C@H]3N2C1` (relative stereo), the mortality at 500 µg/mL in the test with Aphis craccivora [1] worked out at 30%.

With `CCCCN1CC([N+](=O)[O-])=C2N(CC3COCO3)CCN2C1` (centres undefined), the mortality at 500 µg/mL in the test on Aphis craccivora [1] amounted to 0%.

In the case of `O=[N+]([O-])C1=C2N(Cc3ccc(Cl)nc3)CCN2[C@H](c2ccco2)[C@@](C2=NCCN2Cc2ccc(Cl)nc2)([N+](=O)[O-])[C@@H]1c1ccco1`, the RatioLC50 in the test on Nilaparvata lugens [4] amounted to 10.

Take `CCN1CC([N+](=O)[O-])=C2N(Cc3ccc(Cl)nc3)C[C@H]3CCC[C@H]3N2C1` (relative stereo): the mortality at 500 µg/mL in the test on Aphis craccivora [1] was determined as 30%.

In the case of `O=[N+]([O-])C1=C2N(Cc3ccc(Cl)nc3)CCN2[C@H]2CCC[C@@H]1O2`, the mortality at 500 µg/mL in the test on Aphis craccivora [1] amounted to 87%. The LC50 in the test on Nilaparvata lugens [5] is 4.144 ng; in the test with Nilaparvata lugens [3], 18.9795 ng.

Take `Cl.O=[N+]([O-])/C(=C\c1ccco1)C1=NCCN1Cc1ccc(Cl)nc1`: in the test with Nilaparvata lugens [4], the RatioLC50 was 30. Also, the LC50 in the test on Nilaparvata lugens [3] came to 0.7312 ng.

As a reminder, the mortality is the percentage killed.
